Measured values from patent publication US7553966B2, “Glucocorticoid mimetics, methods of making them, pharmaceutical compositions, and uses thereof” (Boehringer Ingelheim Pharmaceuticals, Inc., priority 2002, dated 2009).

Molecular target: T1, human glucocorticoid receptor (GR) complex (Homo sapiens, UniProt P04150)
T1 construct: made in house; host or cells: insect expression system (baculovirus lysate)
T1 sequence (P04150 1-777): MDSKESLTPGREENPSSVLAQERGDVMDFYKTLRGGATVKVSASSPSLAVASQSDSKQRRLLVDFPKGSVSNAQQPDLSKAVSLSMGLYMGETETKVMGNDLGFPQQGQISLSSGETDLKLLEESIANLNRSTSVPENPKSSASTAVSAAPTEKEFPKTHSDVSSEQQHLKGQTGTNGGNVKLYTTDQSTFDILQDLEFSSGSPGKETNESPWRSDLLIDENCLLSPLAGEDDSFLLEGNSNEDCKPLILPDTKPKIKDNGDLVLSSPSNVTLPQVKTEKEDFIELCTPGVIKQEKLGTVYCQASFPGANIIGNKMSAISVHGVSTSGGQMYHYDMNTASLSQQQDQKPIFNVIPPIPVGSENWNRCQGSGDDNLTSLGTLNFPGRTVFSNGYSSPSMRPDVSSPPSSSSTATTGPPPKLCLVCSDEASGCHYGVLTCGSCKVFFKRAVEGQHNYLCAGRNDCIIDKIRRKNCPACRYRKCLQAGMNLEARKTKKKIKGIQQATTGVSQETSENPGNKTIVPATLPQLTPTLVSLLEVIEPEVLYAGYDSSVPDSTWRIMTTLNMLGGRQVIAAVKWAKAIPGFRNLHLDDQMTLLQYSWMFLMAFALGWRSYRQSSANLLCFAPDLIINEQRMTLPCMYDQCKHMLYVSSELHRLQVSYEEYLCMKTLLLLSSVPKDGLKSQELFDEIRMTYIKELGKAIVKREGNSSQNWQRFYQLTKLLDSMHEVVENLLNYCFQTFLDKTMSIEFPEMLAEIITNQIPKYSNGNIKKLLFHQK
Assay: Glucocorticoid Receptor Competitive Binding Assay (fluorescence polarization, TAMRA-labeled dexamethasone probe)
Settings: qualitative statement; competition with TAMRA-labeled dexamethasone
Experimental: Compounds of the invention were evaluated for binding to the steroid receptor by a fluorescence polarization competitive binding assay.
A. Glucocorticoid Receptor Competitive Binding Assay
Step 1. Characterization of the Fluorescent Probe
The wavelengths for maximum excitation and emission of the fluorescent probe should first be measured. An example of such a probe is rhodamine (TAMRA)-labeled dexamethasone.
The affinity of the probe for the steroid receptor was then determined in a titration experiment. The fluorescence polarization value of the probe in assay buffer was measured on an SLM-8100 fluorometer using the excitation and emission maximum values described above. Aliquots of expression vector lysate were added and fluorescence polarization was measured after each addition until no further change in polarization value was observed. Non-linear least squares regression analysis was used to calculate the dissociation constant of the probe from the polarization values obtained for lysate binding to the probe.
Step 2. Screening for Inhibitors of Probe Binding
This assay uses fluorescence polarization (FP) to quantitate the ability of test compounds to compete with tetramethyl rhodamine (TAMRA)-labeled dexamethasone for binding to a human glucocorticoid receptor (GR) complex prepared from an insect expression system. The assay buffer was: 10 mM TES, 50 mM KCl, 20 mM Na2MoO4. 2H2O, 1.5 mM EDTA, 0.04% w/v CHAPS, 10% v/v glycerol, 1 mM dithiothreitol, pH 7.4. Test compounds were dissolved to 1 mM in neat DMSO and then further diluted to 10× assay concentration in assay buffer supplemented with 10% v/v DMSO. Test compounds were serially diluted at 10× assay concentrations in 10% DMSO-containing buffer in 96-well polypropylene plates. […] Positive controls were reaction mixtures containing no test compound; negative controls (blanks) were reaction mixtures containing 0.7 μM to 2 μM dexamethasone. […] IC50 values were determined by iterative non-linear curve fitting of the FP signal data to a 4-parameter logistic equation.

Compound | activity in the GR binding assay
CC(C)(CC(O)(Cc1cc2cnccc2[nH]1)C(F)(F)F)c1ccc(F)cc1O (stereo not drawn) [5-Fluoro-2-[4,4,4-trifluoro-3-hydroxy-1,1-dimethyl-3-(1H-pyrrolo[3,2-c]pyridin-2-ylmethyl)butyl]phenol] | potent activity
CC(C)(CC(O)(Cc1ccnc2ccccc12)C(F)(F)F)c1cc(Br)cc2c1OCCC2 (stereo not drawn) [4-(6-Bromochroman-8-yl)-1,1,1-trifluoro-4-methyl-2-quinolin-4-ylmethylpentan-2-ol] | potent activity
CC(C)(CC(O)(Cc1cc2cccc(F)c2[nH]1)C(F)(F)F)c1cc(F)ccc1O (stereo not drawn) [4-Fluoro-2-[4,4,4-trifluoro-3-(7-fluoro-1H-indol-2-ylmethyl)-3-hydroxy-1,1-dimethylbutyl]phenol] | potent activity
CC(C)(CC(O)(Cc1[nH]c2ccccc2c1C#N)C(F)(F)F)c1cccc(F)c1 (stereo not drawn) [2-[4-(3-Fluorophenyl)-2-hydroxy-4-methyl-2-trifluoromethylpentyl]-1H-indole-3-carbonitrile] | potent activity
COc1ccc(F)cc1C(C)(C)CC(O)(Cc1cc2ccccc2[nH]1)CC1CC1 (stereo not drawn) [1-Cyclopropyl-4-(5-fluoro-2-methoxyphenyl)-2-(indol-2-ylmethyl)-4-methylpentan-2-ol] | potent activity
COc1c(C(C)(C)CC(O)(Cc2ccnc3ccccc23)C(F)(F)F)ccc2ccccc12 (stereo not drawn) [1,1,1-Trifluoro-4-(1-methoxynaphthalen-2-yl)-4-methyl-2-quinolin-4-ylmethylpentan-2-ol] | potent activity
CC(C)(CC(O)(Cc1ccnc2ccccc12)C(F)(F)F)c1ccsc1 (stereo not drawn) [1,1,1-Trifluoro-4-methyl-2-quinolin-4-ylmethyl-4-thiophen-3-ylpentan-2-ol] | potent activity
CC(C)(CC(O)(Cc1cc2ccccc2[nH]1)C(F)(F)F)c1ccsc1 (stereo not drawn) [1,1,1-Trifluoro-2-(1H-indol-2-ylmethyl)-4-methyl-4-thiophen-3-ylpentan-2-ol] | potent activity
CC(C)(CC(O)(Cc1ccnc2ccccc12)C(F)(F)F)c1ccc2ccccc2c1 (stereo not drawn) [1,1,1-Trifluoro-4-methyl-4-naphthalen-2-yl-2-quinolin-4-ylmethylpentan-2-ol] | potent activity
COc1ccc(C(C)(C)CC(O)(Cc2cc3ccccc3[nH]2)C(F)(F)F)cc1 (stereo not drawn) [1,1,1-Trifluoro-2-(1H-indol-2-ylmethyl)-4-(4-methoxyphenyl)-4-methylpentan-2-ol] | potent activity
CC(C)(CC(O)(Cc1cc2cnccc2[nH]1)C(F)(F)F)c1cccc(F)c1 (stereo not drawn) [1,1,1-Trifluoro-4-(3-fluorophenyl)-4-methyl-2-(1H-pyrrolo[3,2-c]pyridin-2-ylmethyl)pentan-2-ol] | potent activity
COc1ccc(F)cc1C(C)(C)CC(O)(Cc1nc2cc(C)cc(C)c2[nH]1)C(F)(F)F (stereo not drawn) [2-(5,7-Dimethyl-1H-benzoimidazol-2-ylmethyl)-1,1,1-trifluoro-4-(5-fluoro-2-methoxyphenyl)-4-methylpentan-2-ol] | potent activity
CC(C)(CC(O)(Cc1cc2ccncc2[nH]1)C(F)(F)F)c1cc(F)cc2c1OCC2 (stereo not drawn) [1,1,1-Trifluoro-4-(5-fluoro-2,3-dihydrobenzofuran-7-yl)-4-methyl-2-(1H-pyrrolo[2,3-c]pyridin-2-ylmethyl)pentan-2-ol] | potent activity
CC(C)(CC(O)(Cc1[nH]c2ccccc2c1C#N)C(F)(F)F)c1cccc2c1OCC2 (stereo not drawn) | potent activity
Cc1ccc(F)cc1C(C)(C)CC(O)(Cc1nc2cccc(C)c2[nH]1)C(F)(F)F (stereo not drawn) [1,1,1-Trifluoro-4-(5-fluoro-2-methylphenyl)-4-methyl-2-(7-methyl-1H-benzoimidazol-2-ylmethyl)pentan-2-ol] | potent activity
CC(C)(CC(O)(Cc1ccnc2ccccc12)C(F)(F)F)c1cccc2c1OCCC2 (stereo not drawn) [4-Chroman-8-yl-1,1,1-trifluoro-4-methyl-2-quinolin-4-ylmethylpentan-2-ol] | potent activity
Cc1c(CC(O)(CC(C)(C)c2cc(F)ccc2O)C(F)(F)F)[nH]c2cnccc12 (stereo not drawn) [4-Fluoro-2-[4,4,4-trifluoro-3-hydroxy-1,1-dimethyl-3-(3-methyl-1H-pyrrolo[2,3-c]pyridin-2-ylmethyl)butyl]phenol] | potent activity
CC(C)(CC(O)(Cc1[nH]c2ccccc2c1C#N)C(F)(F)F)c1ccc(F)cc1 (stereo not drawn) [2-[4-(4-Fluorophenyl)-2-hydroxy-4-methyl-2-trifluoromethylpentyl]-1H-indole-3-carbonitrile] | potent activity
COc1ccc(F)cc1C(C)(C)CC(O)(Cn1ccnc1-c1ccccc1)C(F)(F)F (stereo not drawn) [2-(2-Phenylimidazol-1-ylmethyl)-1,1,1-trifluoro-4-(5-fluoro-2-methoxyphenyl)-4-methylpentan-2-ol] | potent activity
COC(=O)c1ccc2[nH]c(CC(O)(CC(C)(C)c3ccc(F)cc3OC)C(F)(F)F)cc2c1 (stereo not drawn) [2-[4-(4-Fluoro-2-methoxyphenyl)-2-hydroxy-4-methyl-2-trifluoromethylpentyl]-1H-indole-5-carboxylic acid methyl ester] | potent activity
COc1ccc(Br)cc1C(C)(C)CC(O)(Cc1cc2c(C)cc(C#N)cc2[nH]1)C(F)(F)F (stereo not drawn) [2-[4-(5-Bromo-2-methoxyphenyl)-2-hydroxy-4-methyl-2-trifluoromethylpentyl]-4-methyl-1H-indole-6-carbonitrile] | potent activity
CC(C)(CC(O)(Cc1ccnc2ccccc12)C(F)(F)F)c1cccc(O)c1 (stereo not drawn) [3-(4,4,4-Trifluoro-3-hydroxy-1,1-dimethyl-3-quinolin-4-ylmethylbutyl)phenol] | potent activity
CC(C)(CC(O)(Cc1ccnc2cc(F)ccc12)C(F)(F)F)c1ccc(F)cc1 (stereo not drawn) [1,1,1-Trifluoro-4-(4-fluorophenyl)-2-(7-fluoroquinolin-4-ylmethyl)-4-methylpentan-2-ol] | potent activity
CC(C)(CC(O)(Cc1cc2cc(C#N)ccc2[nH]1)C(F)(F)F)c1cccc2c1OCC2 (stereo not drawn) [2-[4-(2,3-Dihydrobenzofuran-7-yl)-2-hydroxy-4-methyl-2-trifluoromethylpentyl]-1H-indole-5-carbonitrile] | potent activity
COc1ccc(F)cc1C(C)(C)CC(O)(Cc1cc(Cl)nc2ccccc12)C(F)(F)F (stereo not drawn) [1,1,1-Trifluoro-4-(5-fluoro-2-methoxyphenyl)-4-methyl-2-(2-chloroquinolin-4-ylmethyl)pentan-2-ol] | potent activity
CC(C)(CC(O)(Cc1ccnc2ccccc12)C(F)(F)F)c1ccc2c(c1)CCO2 (stereo not drawn) [4-(2,3-Dihydrobenzofuran-5-yl)-1,1,1-trifluoro-4-methyl-2-quinolin-4-ylmethylpentan-2-ol] | potent activity
COc1ccc(F)cc1C(C)(C)CC(O)(Cc1cc2ccccc2[nH]1)C(C)C (stereo not drawn) [5-(5-Fluoro-2-methoxyphenyl)-3-(indol-2-ylmethyl)-2,5-dimethylhexan-3-ol] | potent activity
